Drawing on patent US20240199613A1 (TAKEDA PHARMACEUTICAL COMPANY LIMITED, priority 2021, published 2024), this text covers EC50 for 23 compounds.

Chain of human activated kallikrein enzyme (P03952 391-638 limits assumed): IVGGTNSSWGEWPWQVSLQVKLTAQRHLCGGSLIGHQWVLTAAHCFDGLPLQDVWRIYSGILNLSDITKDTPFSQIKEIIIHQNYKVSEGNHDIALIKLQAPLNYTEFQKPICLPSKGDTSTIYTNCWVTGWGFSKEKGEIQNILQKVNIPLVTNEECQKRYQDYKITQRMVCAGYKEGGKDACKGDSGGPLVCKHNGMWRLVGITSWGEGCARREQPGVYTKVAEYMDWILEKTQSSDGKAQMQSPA
Chain of human activated kallikrein enzyme (P03952 20-390 partner limits assumed): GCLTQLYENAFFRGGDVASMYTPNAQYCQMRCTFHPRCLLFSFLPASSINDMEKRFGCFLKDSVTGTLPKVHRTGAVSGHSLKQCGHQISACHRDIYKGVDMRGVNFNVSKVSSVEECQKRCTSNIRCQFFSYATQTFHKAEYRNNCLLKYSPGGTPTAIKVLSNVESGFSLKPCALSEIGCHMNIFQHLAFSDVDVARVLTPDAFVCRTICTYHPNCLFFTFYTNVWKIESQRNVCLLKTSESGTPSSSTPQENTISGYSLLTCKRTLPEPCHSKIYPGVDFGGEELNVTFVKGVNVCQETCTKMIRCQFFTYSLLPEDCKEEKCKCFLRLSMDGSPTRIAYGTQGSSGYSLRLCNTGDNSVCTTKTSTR

This experiment concerns the target human activated kallikrein enzyme (Homo sapiens, UniProt P03952). The experiment is described as follows: Inhibition of activated plasma kallikrein, fluorogenic peptide substrate (PFR-AMC) assay, 500 pM enzyme format. It counts as biochemical. Particulars: 500 pM activated kallikrein, 300 uM PFR-AMC, 30 min preincubation, 10 min reaction, room temperature; read-out: Primary Dose Response Assay: Average EC50. On the procedure:
Compounds were evaluated for inhibition of the human activated kallikrein enzyme in two formats of an assay employing a fluorogenic peptide substrate. In one assay format, the concentrations of reagents were as follows: 20 mM Tris pH 7.5, 1 mM EDTA, 150 mM sodium chloride, 0.1% PEG-400, 0.1% Triton X-100, 500 pM activated kallikrein enzyme, 300 uM Pro-Phe-Arg-7-amido-4-methylcoumarin (PFR-AMC) substrate. Prior to reaction initiation with substrate, enzyme and inhibitors were preincubated for 30 min at room temperature. After initiation with substrate, reactions were incubated for 10 min at room temperature and fluorescence emission at 460 nm from 380 nm excitation measured with a microplate reader. In another assay format, the concentrations of reagents were as follows: 20 mM Tris pH 7.5, 1 mM EDTA, 150 mM sodium chloride, 0.1% PEG-400, 0.1% Triton X-100, 5 pM activated kallikrein enzyme, 300 uM PFR-AMC substrate. Prior to reaction initiation with substrate, enzyme and inhibitors were preincubated for 30 min at room temperature. After initiation with substrate, reactions were incubated for 18 hr at room temperature and fluorescence emission at 460 nm from 380 nm excitation measured with a microplate reader.
Table 6 provides the results of the assay in the format with 500 pM activated kallikrein assay.
`COc1cc([C@H]2C[C@@H]2c2cccc(Cl)c2)nc2cc(NCc3cn4cc(C5CC5)cc(N5CCCC5=O)c4n3)ccc12` (racemic) [Example 4, rac-1-(2-(((2-((7S*,2S*)-2-(3-chlorophenyl)cyclopropyl)-4-methoxyquinolin-7-yl)amino)methyl)-6-cyclopropylimidazo[1,2-a]pyridin-8-yl)pyrrolidin-2-one]: the EC50 is 10 to 100 nM.
As for `O=c1cc(C2C[C@@H]2c2cccc(Cl)c2)[nH]c2cc(NCc3cn4cc(C5CC5)ccc4n3)ccc12` (mixture of isomers) [Example 49, rac-2-((1S*,2S*)-2-(3-chlorophenyl)cyclopropyl)-7-(((6-cyclopropylimidazo[1,2-a]pyridin-2-yl)methyl)amino)quinolin-4 (1H)-one], the figure is 1 to 10 nM.
As for `COc1cc([C@H]2C[C@@H]2c2cccc(Cl)c2)nc2cc(NCc3cn4cc(C5CC5)cc(N5CC(=O)N(C)C5=O)c4n3)ncc12` [Example 18, 1-(2-(((2-((1S,2S)-2-(3-chlorophenyl)cyclopropyl)-4-methoxy-1,6-naphthyridin-7-yl)amino)methyl)-6-cyclopropylimidazo[1,2-a]pyridin-8-yl)-3-methylimidazolidine-2,4-dione], the figure is 10 to 100 nM.
As for `COc1cc(OCc2cn3cc(C4CC4)cc(N4CC(=O)N(C)C4=O)c3n2)cc2nc([C@H]3C[C@@H]3c3nccc(C)n3)ccc12` (racemic) [Example 102, rac-1-(6-cyclopropyl-2-(((5-methoxy-2-((1S*,2S*)-2-(4-methylpyrimidin-2-yl)cyclopropyl)quinolin-7-yl)oxy)methyl)imidazo[1,2-a]pyridin-8-yl)-3-methylimidazolidine-2,4-dione], the figure is 10 to 100 nM; as for `Cc1ccnc([C@H]2C[C@@H]2c2ccc3c(ncn3Cc3cn4cc(C5CC5)cc(N5CC(=O)N(C)C5=O)c4n3)n2)n1` (racemic) [Example 72, rac-1-(6-cyclopropyl-2-((5-((1S*,2S*)-2-(4-methylpyrimidin-2-yl)cyclopropyl)-1H-imidazo[4,5-b]pyridin-1-yl)methyl)imidazo[1,2-a]pyridin-8-yl)-3-methylimidazolidine-2,4-dione], 100 to 6500 nM; as for `Cc1ccnc([C@H]2C[C@@H]2c2ncc3cnc(NCc4cn5cc(C6CC6)cc(N6CC(=O)N(C)C6=O)c5n4)cc3n2)n1` (racemic) [Example 63, rac-1-(6-cyclopropyl-2-(((2-((1S*,2S*)-2-(4-methylpyrimidin-2-yl)cyclopropyl)pyrido[4,3-d]pyrimidin-7-yl)amino)methyl)imidazo[1,2-a]pyridin-8-yl)-3-methylimidazolidine-2,4-dione], 100 to 6500 nM.
With `Clc1cccc([C@H]2C[C@@H]2c2nc3ccc(NCc4cn5cc(C6CC6)ccc5n4)cc3[nH]2)c1` [Example 45, 2-((1S,2S)-2-(3-chlorophenyl)cyclopropyl)-N-((6-cyclopropylimidazo[1,2-a]pyridin-2-yl)methyl)-1H-benzo[d]imidazol-6-amine], the EC50 was more than 6500 nM.
Next, `Cc1ccnc([C@H]2C[C@@H]2c2ccc3ncc(NCc4cn5cc(C6CC6)cc(N6CC(=O)N(C)C6=O)c5n4)cc3c2)n1` (racemic) [Example 16, rac-1-(6-Cyclopropyl-2-(((6-((1S*,2S*)-2-(4-methylpyrimidin-2-yl)cyclopropyl)quinolin-3-yl)amino)methyl)imidazo[1,2-a]pyridin-8-yl)-3-methylimidazolidine-2,4-dione]: 100 to 6500 nM; `Cc1ccnc([C@H]2C[C@@H]2c2ccc3ccc(NCc4cn5cc(C6CC6)cc(N6C(=O)N(C)C(=O)C6C6(O)COC6)c5n4)cc3n2)n1` (relative stereo) [Example 90, rac-1-(6-cyclopropyl-2-(((2-((1S*,2S*)-2-(4-methylpyrimidin-2-yl)cyclopropyl)quinolin-7-yl)amino)methyl)imidazo[1,2-a]pyridin-8-yl)-5-(3-hydroxyoxetan-3-yl)-3-methylimidazolidine-2,4-dione]: 1 to 10 nM.
Next, `Cc1ccnc([C@H]2C[C@@H]2c2ccc3ncc(N(C)Cc4cn5cc(C6CC6)cc(N6CC(=O)N(C)C6=O)c5n4)cc3c2)n1` (racemic) [Example 17, rac-1-(6-Cyclopropyl-2-((methyl(6-((1S*,2S*)-2-(4-methylpyrimidin-2-yl)cyclopropyl)quinolin-3-yl)amino)methyl)imidazo[1,2-a]pyridin-8-yl)-3-methylimidazolidine-2,4-dione]: 100 to 6500 nM; `COc1cc([C@H]2C[C@@H]2c2cccc(Cl)c2)nc2cc(NCc3cn4cc(C5CC5)ccc4n3)ccc12` (racemic) [Example 48, rac-2-((1S*,2S*)-2-(3-chlorophenyl)cyclopropyl)-N-((6-cyclopropylimidazo[1,2-a]pyridin-2-yl)methyl)-4-methoxyquinolin-7-amine]: 10 to 100 nM; `O=c1nc([C@H]2C[C@@H]2c2cccc(Cl)c2)[nH]c2cc(NCc3cn4cc(C5CC5)ccc4n3)ccc12` [Example 50, 2-((1S,2S)-2-(3-chlorophenyl)cyclopropyl)-7-(((6-cyclopropylimidazo[1,2-a]pyridin-2-yl)methyl)amino)quinazolin-4 (1H)-one]: 10 to 100 nM.
As for `Clc1cccc([C@H]2C[C@@H]2c2nc3cccc(NCc4cn5cc(C6CC6)ccc5n4)c3[nH]2)c1` [Example 46, 2-((1S, 2S)-2-(3-chlorophenyl)cyclopropyl)-N-((6-cyclopropylimidazo[1,2-a]pyridin-2-yl)methyl)-1H-benzo[d]imidazol-7-amine], the figure is more than 6500 nM; as for `Cc1ccnc([C@@H]2C[C@H]2C2=NS(=O)(=O)c3ccc(NCc4cn5cc(C6CC6)ccc5n4)cc3N2)n1` (single isomer, unassigned) [Example 66], 10 to 100 nM; as for `Cc1ccnc([C@H]2C[C@@H]2c2ccc3ccc(NCc4cn5cc(C6CC6)ccc5n4)cc3n2)n1` (racemic) [Example 19, rac-N-((6-cyclopropylimidazo[1,2-a]pyridin-2-yl)methyl)-2-((1S*,2S*)-2-(4-methylpyrimidin-2-yl)cyclopropyl)quinolin-7-amine], 1 to 10 nM.
As for `Cc1ccnc([C@H]2C[C@@H]2c2cnc3ccc(NCc4cn5cc(C6CC6)cc(N6CC(=O)N(C)C6=O)c5n4)cc3c2)n1` (racemic) [Example 24, rac-1-(6-cyclopropyl-2-(((3-((1S*,2S*)-2-(4-methylpyrimidin-2-yl)cyclopropyl)quinolin-6-yl)amino)methyl)imidazo[1,2-a]pyridin-8-yl)-3-methylimidazolidine-2,4-dione], the EC50 was 100 to 6500 nM.
As to `O[C@H]1C[C@H](c2cn3cc(C4CC4)ccc3n2)N(c2cc3[nH]c([C@H]4C[C@@H]4c4cccc(Cl)c4)c(F)c3cn2)C1` (relative stereo) [Example 56, rac-(3S,5R)-1-(2-((1S*,2S*)-2-(3-chlorophenyl)cyclopropyl)-3-fluoro-1H-pyrrolo[3,2-c]pyridin-6-yl)-5-(6-cyclopropylimidazo[1,2-a]pyridin-2-yl)pyrrolidin-3-ol], the EC50 is more than 6500 nM.
As for `Cc1ccnc([C@H]2C[C@@H]2c2cnc3ccc(NCc4cn5cc(C6CC6)cc(N6CC(=O)N(C)C6=O)c5n4)cc3n2)n1` (racemic) [Example 62, rac-1-(6-cyclopropyl-2-(((3-((1S*,2S*)-2-(4-methylpyrimidin-2-yl)cyclopropyl)quinoxalin-6-yl)amino)methyl)imidazo[1,2-a]pyridin-8-yl)-3-methylimidazolidine-2,4-dione], the figure is 100 to 6500 nM; as for `Cc1ccnc([C@H]2C[C@@H]2c2ccc3ncn(Cc4cn5cc(C6CC6)cc(N6CC(=O)N(C)C6=O)c5n4)c3n2)n1` (racemic) [Example 71, rac-1-(6-cyclopropyl-2-((5-((1S*,2S*)-2-(4-methylpyrimidin-2-yl)cyclopropyl)-3H-imidazo[4,5-b]pyridin-3-yl)methyl)imidazo[1,2-a]pyridin-8-yl)-3-methylimidazolidine-2,4-dione], more than 6500 nM.
Next, `Cc1ccnc([C@@H]2C[C@H]2c2ccc3ccc(NCc4cn5cc(C6CC6)cc(N6CC(=O)N(C)C6=O)c5n4)cc3n2)n1` (single isomer, unassigned) [Example 58]: 10 to 100 nM; `Cc1ccnc([C@H]2C[C@@H]2C2=NS(=O)(=O)c3ccc(NCc4cn5cc(C6CC6)ccc5n4)cc3N2C)n1` [Example 94, 6-(((6-cyclopropylimidazo[1,2-a]pyridin-2-yl)methyl)amino)-4-methyl-3-((1S,2S)-2-(4-methylpyrimidin-2-yl)cyclopropyl)-4H-benzo[e][1,2,4]thiadiazine 1,1-dioxide]: 100 to 6500 nM; `COc1cc([C@H]2C[C@@H]2c2nccc(C)n2)nc2cc(N3C[C@@H](O)C[C@@H]3c3cn4cc(C5CC5)ccc4n3)ccc12` (relative stereo) [Example 53, (3S,5R)-5-(6-cyclopropylimidazo[1,2-a]pyridin-2-yl)-1-(4-methoxy-2-(rac-(1S*,2S*)-2-(4-methylpyrimidin-2-yl)cyclopropyl)quinolin-7-yl)pyrrolidin-3-ol]: 1 to 10 nM.
For `CN1C(=O)CN(c2cc(C3CC3)cn3cc(CNc4ccc5ccc([C@H]6C[C@@H]6c6cc(Cl)ccc6C#N)nc5c4)nc23)C1=O` (racemic) [Example 83, rac-4-chloro-2-((1S*,2S*)-2-(7-(((6-cyclopropyl-8-(3-methyl-2,4-dioxoimidazolidin-1-yl)imidazo[1,2-a]pyridin-2-yl)methyl)amino)quinolin-2-yl)cyclopropyl)benzonitrile], the EC50 was 1 to 10 nM.

Usually EC50 stands for the concentration needed to bring the measured effect to its halfway point.
